{"source": "patent US20260092086A1", "about": "“ANTIMICROBIAL LASSO PEPTIDES” (priority 2022, published 2026)", "key": {"[1]": {"system": "carboxypeptidase B and carboxypeptidase Y", "experiment": "Carboxypeptidase digestion", "type": "in vitro ADME", "description": "Carboxypeptidase assays were done in 50 μL of 50 mM sodium acetate, pH 6.0 with 1 unit each of carboxypeptidase B and carboxypeptidase Y. Reactions were incubated overnight at 20° C. for 16 hours and then quenched with 1% formic acid. An aliquot of the reaction was then injected onto LC-MS to compare with an untreated control."}, "[2]": {"system": "Enterobacter kobei MGH178", "details": "strain MGH178; cited from earlier work"}, "[3]": {"system": "Enterobacter cloacae BIDMC120", "details": "strain BIDMC120; cited from earlier work"}, "[4]": {"system": "Enterobacter hormaechei BIDMC87", "details": "strain BIDMC87; cited from earlier work"}, "[5]": {"system": "Enterobacter asburiae MGH243", "details": "strain MGH243; cited from earlier work"}, "[6]": {"system": "Enterobacter ludwigii MGH216", "details": "strain MGH216; cited from earlier work"}, "[7]": {"system": "Enterobacter cloacae MGH3", "details": "strain MGH3; cited from earlier work"}, "[8]": {"system": "Enterobacter asburiae UCI193", "details": "strain UCI193; cited from earlier work"}, "[9]": {"system": "Enterobacter hormaechei BWH39", "details": "strain BWH39; cited from earlier work"}, "[10]": {"system": "Enterobacter cloacae UCI102", "details": "strain UCI102; cited from earlier work"}, "[11]": {"system": "Enterobacter roggenkampii MGH239", "details": "strain MGH239; cited from earlier work"}, "[12]": {"system": "Enterobacter hormaechei UCI35", "details": "strain UCI35; cited from earlier work"}, "Thermolysin": {"target": "T1, Thermolysin (Geobacillus stearothermophilus, UniProt P43133)", "T1 construct": "purchased Sigma-Aldrich", "T1 sequence (P43133 236-551)": "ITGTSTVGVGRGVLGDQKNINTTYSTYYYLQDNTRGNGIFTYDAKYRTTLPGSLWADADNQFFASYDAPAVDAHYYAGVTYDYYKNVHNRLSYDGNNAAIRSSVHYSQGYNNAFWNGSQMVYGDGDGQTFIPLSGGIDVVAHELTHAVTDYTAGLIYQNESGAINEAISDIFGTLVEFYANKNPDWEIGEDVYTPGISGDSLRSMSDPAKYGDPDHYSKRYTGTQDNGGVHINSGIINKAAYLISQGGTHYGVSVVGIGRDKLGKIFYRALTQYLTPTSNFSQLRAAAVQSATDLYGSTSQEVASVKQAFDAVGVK", "experiment": "Protease digestion, thermolysin", "type": "in vitro ADME", "details": "50 μM peptide, 30° C., about 1 hour, LC-MS", "description": "Thermolysin from Geobacillus stearothermophilus (Sigma-Aldrich) was first resuspended in 50 mM Tris, 0.5 mM CaCl2). The enzyme was then added to 50 μM peptide samples at a final concentration of about 0.04 mg/mL in a buffer of 50 mM Tris, 0.5 mM CaCl2), pH 8. The reactions were then allowed to incubate at 30° C. for about 1 hour before quenching with 1% formic acid. An aliquot was then injected onto LC-MS for analysis."}, "[13]": {"experiment": "Stability of variants: threaded-to-unthreaded peptide in supernatant extract by LC-MS", "type": "physicochemical", "details": "for Stability Relative to WT: ratio of threaded-to-unthreaded peptide in supernatant extract after purification; for threaded versus unthreaded peptide in supernatant extract (stability against unthreading): heating and carboxypeptidase assays, compared with wild-type"}, "[14]": {"system": "Enterobacter amnigenus ATCC 33072", "type": "cell-based", "details": "against Enterobacter amnigenus (FIG. 28, peptides at 10 μM; Y10A FIG. 34)", "description": "Cloacaenodin was evaluated against several common laboratory strains as well as commercially acquired strains using a spot-on-lawn assay.^45 Strains were streaked out onto LB agar plates and incubated overnight at their recommended temperatures. A single colony was then used to inoculate an overnight culture in 5 mL of LB broth. After shaking at 250 rpm at the recommended temperature for each strain, 50 μL of the overnight culture was used to inoculate 5 mL of LB broth (volume ratio 1:100). These cultures were grown for a few hours until they reached the exponential phase (OD600˜0.4-0.6) before being added to 10 mL of soft M63 agar at a final cell density of 10^7 CFUs/mL, or 10^8 CFUs total in 10 mL. The M63 soft agar was composed of 2 g/L of (NH4)2SO4 (EMD MilliporeSigma), 13.6 g/L of KH2PO4 (Fisher), 40 mg/L of each of the 20 common amino acids, 0.2% glucose (Sigma), 0.00005% w/v thiamine hydrochloride (Sigma), and 0.65% w/v bacteriological-grade agar (Apex Bioresearch). […] Upon solidification, 10 μL of purified cloacaenodin in water at two-fold dilutions were then spotted onto the agar and allowed to dry. The plates were incubated overnight at the strains' recommended temperatures and analyzed the next morning for activity. The MIC is defined as the last dilution where a spot was visible."}, "[15]": {"system": "Escherichia coli XL-1 Blue", "experiment": "Intracellular toxicity: IPTG-induced expression from plasmid lacking cloD", "type": "cell-based", "details": "IPTG induction", "description": "After characterizing the structure and proteolytic resistance of cloacaenodin, cloacaenodin's inhibition of bacterial growth was tested. As a preliminary test of antimicrobial activity, a version of the expression plasmid from which the cloD gene was removed was cloned, so that the lasso peptide could not be exported by the Escherichia coli upon isopropyl β-D-1-thiogalactopyranoside (IPTG)-induced expression.\nCloacaenodin variants were constructed using site-directed mutagenesis. Mutant precursor genes were amplified from the wild-type precursor in pAK2 using mutagenic primers. Following PCR amplification of the mutated precursor gene, the purified PCR product was digested and ligated into pAK2 with the EcoRI and HindIII restriction sites. For the pMP3 plasmid for deletion of the cloD gene, the D gene was first disrupted by digestion of pAK2 with BamHI and NcoI, which removed the entire cloD gene and the C-terminal portion of the cloC gene. The digested plasmid was then ligated with an insert that restored the C-terminal portion of the cloC gene. All mutants were sequence confirmed by Genewiz (now Azenta) before use."}}, "note": "“Also recorded” adds a separate entry of the source. Where a SMILES comes first, the peptide text is derived from it."}
{"molecule": "CC[C@H](C)[C@@H]1NC(=O)[C@H](CCCNC(=N)N)NC(=O)[C@H](CC(=O)O)NC(=O)[C@H](C(C)C)NC(=O)[C@H](CO)NC(=O)[C@H](Cc2c[nH]cn2)NC(=O)CNC(=O)CC[C@@H](C(=O)N[C@@H](Cc2ccc(O)cc2)C(=O)N[C@@H](Cc2ccccc2)C(=O)NCC(=O)N2CCC[C@H]2C(=O)N2CCC[C@H]2C(=O)NCC(=O)N[C@@H](CC(C)C)C(=O)N2CCC[C@H]2C(=O)NCC(=O)N2CCC[C@H]2C(=O)N[C@H](C(=O)N[C@@H](CC(C)C)C(=O)N[C@@H](Cc2ccccc2)C(=O)N[C@@H](Cc2ccc(O)cc2)C(=O)NCC(=O)O)C(C)C)NC(=O)[C@@H]2CCCN2C1=O", "note": "[Cloacaenodin S24G] (HELM PEPTIDE1{G.H.S.V.D.R.I.P.E.Y.F.G.P.P.G.L.P.G.P.V.L.F.Y.G}$PEPTIDE1,PEPTIDE1,1:R1-9:R3$$$V2.0; C-terminus assumed; bridges inferred)", "values": [{"measurement": "proteolysis by carboxypeptidase", "setting": "[1]; pH 6", "value": "susceptibility to carboxypeptidase"}]}
{"molecule": "C[C@@H](O)[C@H]1C(=O)N2C(C(=O)O)=C(S[C@@H]3CN[C@H](C(=O)N(C)C)C3)[C@H](C)[C@H]12", "note": "[Meropenem]", "values": [{"measurement": "Meropenem MIC", "setting": "[2]", "value": "≤0.25", "unit": "µg/mL"}, {"measurement": "Meropenem MIC", "setting": "[3]", "value": 4, "unit": "µg/mL"}, {"measurement": "Meropenem MIC", "setting": "[4]", "value": 16, "unit": "µg/mL"}, {"measurement": "Meropenem MIC", "setting": "[5]", "value": 16, "unit": "µg/mL"}, {"measurement": "Meropenem MIC", "setting": "[6]", "value": "≤0.25", "unit": "µg/mL"}, {"measurement": "Meropenem MIC", "setting": "[7]", "value": "≥16", "unit": "µg/mL"}, {"measurement": "Meropenem MIC", "setting": "[8]", "value": 23, "unit": "µg/mL"}, {"measurement": "Meropenem MIC", "setting": "[9]", "value": 2, "unit": "µg/mL"}, {"measurement": "Meropenem MIC", "setting": "[10]", "value": 0.063, "unit": "µg/mL"}, {"measurement": "Meropenem MIC", "setting": "[11]", "value": 1, "unit": "µg/mL"}, {"measurement": "Meropenem MIC", "setting": "[12]", "value": 4, "unit": "µg/mL"}]}
{"molecule": "CC[C@H](C)[C@@H]1NC(=O)[C@H](CCCNC(=N)N)NC(=O)[C@H](CC(=O)O)NC(=O)[C@H](C(C)C)NC(=O)[C@H](CO)NC(=O)[C@H](Cc2c[nH]cn2)NC(=O)CNC(=O)CC[C@@H](C(=O)N[C@@H](Cc2ccc(O)cc2)C(=O)N[C@@H](Cc2ccccc2)C(=O)NCC(=O)N2CCC[C@H]2C(=O)N2CCC[C@H]2C(=O)NCC(=O)N[C@@H](CC(C)C)C(=O)N2CCC[C@H]2C(=O)NCC(=O)N2CCC[C@H]2C(=O)N[C@H](C(=O)N[C@@H](CC(C)C)C(=O)N[C@@H](Cc2ccccc2)C(=O)N[C@@H](Cc2ccc(O)cc2)C(=O)N[C@@H](CO)C(=O)O)C(C)C)NC(=O)[C@@H]2CCCN2C1=O", "note": "[unthreaded cloacaenodin] (HELM PEPTIDE1{G.H.S.V.D.R.I.P.E.Y.F.G.P.P.G.L.P.G.P.V.L.F.Y.S}$PEPTIDE1,PEPTIDE1,1:R1-9:R3$$$V2.0; C-terminus assumed; bridges inferred)", "values": [{"measurement": "proteolysis by thermolysin", "setting": "Thermolysin", "value": "cleavage of the unthreaded peptide both in its linear and ring segments; also recorded: can be cleaved by thermolysin"}]}
{"molecule": "GHSVADRIPEYFGPPGLPGPVLFYS [Cloacaenodin 10-membered ring]", "values": [{"measurement": "proteolysis by carboxypeptidase", "setting": "[1]; carboxypeptidase B and Y, pH 6.0, 20° C., 16 hours, LC-MS", "value": "susceptible to degradation by carboxypeptidase"}, {"measurement": "Stability Relative to WT", "setting": "[13]", "value": "Less"}]}
{"molecule": "GHSVDRIAEYFGPPGLPGPVLFYS [Cloacaenodin P8A, 109]", "values": [{"measurement": "threaded versus unthreaded peptide in supernatant extract (stability against unthreading)", "setting": "[13]", "value": "a dramatic decrease in the ratio of threaded-to-unthreaded peptide in the extract for a cloacaenodin P8A variant (FIG. 32) was not observed"}, {"measurement": "Stability Relative to WT", "setting": "[13]", "value": "Comparable"}]}
{"molecule": "GHSVDRIPEAFGPPGLPGPVLFYS [Cloacaenodin Y10A, 118]", "values": [{"measurement": "Bioactivity Relative to WT", "setting": "[14]", "value": "Much less"}, {"measurement": "intracellular toxicity (growth of E. coli on IPTG without CloD)", "setting": "[15]", "value": "not toxic intracellularly"}, {"measurement": "intracellular toxicity (growth of E. coli on IPTG without CloD)", "setting": "[15]; listed as Y10A", "value": "cells could still grow"}]}
{"molecule": "GHSVDRIPEYFGPPGLPGPVLFYA [Cloacaenodin S24A, 113]", "values": [{"measurement": "Bioactivity Relative to WT", "setting": "[14]", "value": "Comparable"}]}
{"molecule": "GHSVDRIPEYFGPPGLPGPVLFYC [Cloacaenodin S24C, 117]", "values": [{"measurement": "Bioactivity Relative to WT", "setting": "[14]", "value": "Less"}]}
{"molecule": "GHSVDRIPEYFGPPGLPGPVLFYT [Cloacaenodin S24T, 116]", "values": [{"measurement": "Bioactivity Relative to WT", "setting": "[14]", "value": "Less"}]}
{"molecule": "GHSVDRIPEYFGPPGLPGPVLFYY [Cloacaenodin S24Y, 114]", "values": [{"measurement": "Bioactivity Relative to WT", "setting": "[14]", "value": "Comparable"}]}
{"molecule": "GHSVDRIPEYFGPPGLPGPVLWYS [Cloacaenodin F22W]", "values": [{"measurement": "Bioactivity Relative to WT", "setting": "[14]", "value": "Comparable"}, {"measurement": "threaded versus unthreaded peptide in supernatant extract (stability against unthreading)", "setting": "[13]", "value": "comparable levels of unthreaded peptide"}, {"measurement": "Stability Relative to WT", "setting": "[13]", "value": "Comparable"}]}
